The target of data set [1] is T1, dimethylarginine dimethylaminohydrolase (P. aeruginosa DDAH) (Pseudomonas aeruginosa, UniProt Q9I4E3).
T1 sequence (Q9I4E3 1-254): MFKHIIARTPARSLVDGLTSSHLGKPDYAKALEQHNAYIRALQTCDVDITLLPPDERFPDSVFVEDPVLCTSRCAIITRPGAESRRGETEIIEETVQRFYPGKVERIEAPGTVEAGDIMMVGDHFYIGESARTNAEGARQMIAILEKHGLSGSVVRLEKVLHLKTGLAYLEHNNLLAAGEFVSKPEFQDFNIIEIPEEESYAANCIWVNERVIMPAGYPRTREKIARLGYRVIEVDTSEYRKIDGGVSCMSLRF
Kind of data set: dose-dependent inhibition of isolated enzyme. Type of data set: biochemical.

A further data set has as its target human DDAH-1 (Homo sapiens, UniProt O94760). Kind of data set: dose-dependent inhibition of isolated enzyme. Type of data set: biochemical.
Substrate in data set [2]: CSC(=N)NCCC[C@H](N)C(=O)O
The data set is described as follows: steady-state kinetics, DTNB-coupled 384-well assay. Format: biochemical, Pseudomonas aeruginosa.

Sequence of human DDAH-1 (O94760 2-285): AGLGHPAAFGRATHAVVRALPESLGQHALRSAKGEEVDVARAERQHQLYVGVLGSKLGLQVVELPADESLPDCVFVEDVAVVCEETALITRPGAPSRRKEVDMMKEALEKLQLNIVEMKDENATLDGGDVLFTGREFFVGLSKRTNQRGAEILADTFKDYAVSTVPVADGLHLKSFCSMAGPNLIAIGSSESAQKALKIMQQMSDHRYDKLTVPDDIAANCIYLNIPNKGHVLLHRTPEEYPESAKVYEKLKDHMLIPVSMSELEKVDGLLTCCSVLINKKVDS

In general, IC50 refers to the concentration that inhibits the measured activity by half. As for `O=c1c2ccccc2[se]n1-c1ccccc1` [ebselen], the IC50 came out at 96 ± 2 nM in data set [1] and 330 ± 30 nM at human DDAH-1.

B1: dimethylarginine dimethylaminohydrolase (P. aeruginosa DDAH) (Pseudomonas aeruginosa PAO1) (protein)
chain: T1 sequence (Q9I4E3 1-254)
The term Km denotes the substrate concentration at which the rate is half of its maximum. For the molecule B1, the Km in data set [2] is 22 ± 1 µM.

These data come from PMC3171734 (2011).
